From patent US8906694B2, “Organometallic fluorescent sensors for nitric oxide detection and imaging” (The Florida International University Board of Trustees, priority 2012, dated 2014)

What was measured:
[1] = Fluorescence spectroscopy NO sensing in solution after addition of NO donor MAHMA-NONOate; conditions: NO donor MAHMA-NONOate in buffer solution; aerobic and anaerobic conditions for the THF complex
Experimental: A pilot Re(I)-phenanthroline complex: Re(phen)(CO)2(THF)(CF3SO3) complex was synthesized from Re(phen)(CO)3(CF3SO3) (Scheme 3) by photochemical substitution of a CO with THF in situ and was tested for NO sensing by fluorescence spectroscopy after the addition of the NO donor: MAHMA-NONOate (Cayman Pharmaceuticals) at the are 10 μM-200 μM range (FIGS. 1 and 2). […] It is worth mentioning the dye is highly sensitive to NO, since it is only used at a concentration of only 10 μM, and responds to concentrations of NO donor in the μM level as well (FIG. 5). […] Furthermore live cell experiments with Re(phen)(CO)2(THF)(CF3SO3) prepared by thermal substitution gave similar results.
A stepwise experimental protocol for preparation and testing of the Rhenium organometallic sensor and comparison with existing technology is as follows: • 1) Preparation of a stock solution of a 2.0 mM NO donor solution by dissolving 0.6 mg of (Z)-1-[N-Methyl-N-[6-(N-methylammoniohexyl)amino]]diazen-1-ium-1,2-diolate (Methylamine hexamethylene methylamine NONOate or MAHMA NONOate) in 0.01 M NaOH. Solution is kept at 4° C. until use. • 2) Preparation of a 1.0 mM stock solution of probe LRe(CO)3(OSO2CF3) in DMSO or THF (L is phen or substituted analog). For the Re probe the solution is undergoing the following steps: […]

[2] = tested on: Rat Aortic Endothelial Cells; test: Fluorescence microscopy NO imaging in living cells with NO donor addition; type: cell-based; conditions: for absorptivity of the dye into the cells: living cells, fluorescence microscopy
From the text: Rat Aortic Endothelial Cells acquired from Cell Biologics were used for the cell based experiments. Fetal Bovine Serum (FBS) and DMSO were bought from ATCC. Penicillin-Streptomycin and endothelial cell growth supplement from bovine neural tissue were bought from Sigma Aldrich. DMEM/F-12 medium, PBS and Trypsin (0.05% EDTA) were bought from Invitrogen. Cell culture flasks and dishes were bought from Fisher Scientific. MAHMA/NO was bought from Cayman Chemicals.
Cell culture: Rat Aortic Endothelial Cells were grown (passage 4-10) in DMEM/F-12 medium supplemented with 10% FBS, 1% penicillin-streptomycin, and endothelial cell growth supplement in a humidified tissue culture incubator at 37° C. equilibrated with 95% air/5% CO2. For experimentation, cells were cultured in 35×10 mm dishes seeded with 2×10^5 cells and used at 60-80% confluency.
After the loading phase with the organometallic Re-complex (10 μM for 45 min) cells were rinsed off excess dye using PBS buffer solution. This was followed by an exposure to 10 μM MAHMA/NO for 10-15 minutes. Images were then acquired with a fluorescence microscope (Olympus IX 81 fitted with a CCD camera (Qimaging) at 350 nm (excitation) and 450 nm (emission) with 20× zoom, with exposition time of 2668 ms. The data were analyzed with IPLAB software (BioVision Technologies).
Conditions of incubator: 37° C., 21% O2, 5% CO2, with cell culture harvested and plated for at least 24 hours.
[…] of Re(phen)(THF)(CO)2(CF3SO3) or Re(phen)(CO)2(PPh3)(CF3SO3) (1.6×10^−3 M) was prepared in THF. 62.5 μL of this solution was added to 138 μL of acetone. This new solution was added to 800 μL of 10 mM PBS (Phosphate Buffer Saline) buffer solution, resulting in v/v ratios of 6% THF, 14% acetone, and 80% Buffer. This new solution was further diluted 1/10 with PBS Buffer before added to the cells, resulting to final solvent composition of 0.6% THF, 1.4% acetone, and 98% v/v aqueous buffer. This final solution contains the organometallic Re dye at 10 μM concentration, (solution A) before contact with NO donor solutions.
A blank (0 μM NO donor: MAHMA NONOate) and 3 stock solutions (100 μM, 500 μM, 1 mM) MAHMA NONOate were prepared in NaOH 0.01M, which after addition to the media result to final NO donor concentrations of 0 μM, 1 μM, 5 μM, 10 μM.
The old media were poured out from the plates. The plates were rinsed 2 times with 1 mL PBS 10 mM. The next reagents were added to each plate in the following order: […] of DMEM/FBS/Penicillin Media, […] of PBS 10 mM, and 100 μL of Re complex stock in 20% organic mixture. The plates were incubated for 75 minutes.
The reactive media was poured out from the plate. The plates were rinsed 2 times with 1 mL PBS 10 mM. […]

Structure (SMILES) | fluorescent response to NO donor addition in solution [1] | toxicity to the cells ([2]; at the 10 μM level) | absorptivity of the dye into the cells ([2]; dye 10 μM) | fluorescence response to NO donor addition in living cells ([2]; dye 10 μM, MAHMA-NONOate 0-10 μM, λexc=350 nm, λem=450 nm)
O=[C]=[Re]1(=[C]=O)([O]S(=O)(=O)C(F)(F)F)([PH](c2ccccc2)(c2ccccc2)c2ccccc2)[N]2C=CC=c3ccc4c(c32)[N]1C=CC=4 [Re(phen)(CO)2(PPh3)(CF3SO3)] | shows response to NO addition | no toxicity | good dye absorptivity into cells | 
C1CCOC1.O=[C]=[Re]1(=[C]=O)([O]S(=O)(=O)C(F)(F)F)[N]2C=CC=c3ccc4c(c32)[N]1C=CC=4 [Re(phen)(CO)2(THF)(CF3SO3)] | responds directly to NO |  | good absorptivity | direct response
